Data reported in US8884097B1, “Method to condition an invertebrate to detect a concentration range of a chemical compound” (The United States of America as represented by the …, priority 2011, dated 2014).
Entries after “also recorded” stand apart in the source; their conditions may differ.

Experiments:
Microplitis croceipes [1] = assay: Conditioned food-searching response of wasps to individual odor concentrations; format: in vivo
Method: Female wasps were conditioned to a 30 μl solution of indole (Spectrum Chemical MFG CORP., Gardena, Calif.) dissolved in dichloromethane at either 100 μg/ml or 1 μg/ml. The solvent was allowed to evaporate for one min before the assay. The conditioning arena consisted of a 9 cm d, 1.5 cm h metal ring covered with aluminum foil that was placed inside a glass petri dish (10 cm d and 1 cm h) containing the compound-laden filter paper (2.5 cm d). A small (4 mm^2) piece of filter paper laden with the sugar water (1 molar sucrose solution) was placed at the center of the metal ring covered with aluminum foil. A total of 9 holes (ca 1 mm d) were punctured around the tissue paper so that diffusing volatiles could be perceived as they fed on the sugar water. Wasps were allowed to feed for 10 s three times with 30 s between feedings. All conditioning and testing was done under a chemical fume hood. The conditioning arena was replaced with fresh materials after every 5 females (ca 10-15 min). Females were placed in a Plexiglas cage with water for 2 hrs before testing. A total of 20 females were conditioned per day over 2 days.
All test solutions were allowed to evaporate for 1 minute before being presented to the wasps. The test arena was the same as the conditioning arena except that only a single (ca 1 mm d) hole was punctured at the center of the aluminum foil covered metal ring. Wasps were placed close to the hole using a transfer vial. Measured were food-specific behaviors (Wäckers et al., 2002) which included intense substrate antennation with frequent tight turning, a distinct lowering of the head for food searching and attempts to enter the hole. Responses parameters included a recordation of both the number of turns and overall duration of the food searching. Each female was presented a single odor concentration. A total of 20 females (10 to high and 10 to low concentrations) were tested per day over 2 days. Kruskal-Wallis non-parametric ANOVA was used to test the effect of concentration on wasp responses (StatSoft, Inc. 2003).
The arena and procedure for testing were as described in Example 1. However, the wasps were conditioned via positive food conditioning of sugar-water to indole at 1 μg/ml. Additionally, the same wasp was also negatively food conditioned to 100 μg/ml of indole with water. Each female was test with a single indole concentration at either 100 μg/ml of indole or at 1 μg/ml. A total of 20 females (10 to high and 10 to low concentrations) were tested per day over 2 days.
The arena and procedure for testing were as described in Example 1. However, the wasps were conditioned via positive food conditioning of sugar-water to 30 μl of conditioning solution of skatole dissolved in dichloromethane at either 0.001 μg/ml, 0.01 μg/ml, 0.1 μg/ml, 1 μg/ml, 10 μg/ml, or 100 μg/ml. A 1 molar sucrose solution was used as the unconditioned stimulus (reward).

Microplitis croceipes [2] = assay: as above; format: in vivo; settings: positively conditioned to 100 μg/ml and 1000 μg/ml, tested at 1000 μg/ml
[3] = conditioned to 0.1 μg/ml, tested at 0.1 μg/ml
[4] = conditioned to 0.1 μg/ml, tested at 1 μg/ml
[5] = conditioned to 1 μg/ml, tested at 0.1 μg/ml
[6] = conditioned to 1 μg/ml, tested at 1 μg/ml
[7] = conditioned to 1 μg/ml, tested at 10 μg/ml
[8] = conditioned to 10 μg/ml, tested at 1 μg/ml
[9] = conditioned to 10 μg/ml, tested at 10 μg/ml
[10] = conditioned to 100 μg/ml, tested at 100 μg/ml

C[C@]12CCC(=O)C[C@@H]1CC[C@@H]1[C@@H]2CC[C@]2(C)C=CC[C@@H]12 [androstenone, 5α-androst-16-en-3-one]
response of conditioned wasps (food searching time and turns) (Microplitis croceipes [1]; conditioned to 0.01 μg/ml, tested at 0.01 μg/ml): responded to the conditioning concentration | response of conditioned wasps (food searching time and turns) (Microplitis croceipes [1]; conditioned to 0.1 μg/ml, tested at 0.01 μg/ml): only responded to the conditioning concentration | response of conditioned wasps (food searching time and turns) (Microplitis croceipes [1]; [3]): only responded to the conditioning concentration | response of conditioned wasps (food searching time and turns) (Microplitis croceipes [1]; [4]): only responded to the conditioning concentration | response of conditioned wasps (food searching time and turns) (Microplitis croceipes [1]; [5]): only responded to the conditioning concentration | response of conditioned wasps (food searching time and turns) (Microplitis croceipes [1]; [6]): only responded to the conditioning concentration | response of conditioned wasps (food searching time and turns) (Microplitis croceipes [1]; [7]): only responded to the conditioning concentration | response of conditioned wasps (food searching time and turns) (Microplitis croceipes [1]; [8]): did not respond to either concentration | response of conditioned wasps (food searching time and turns) (Microplitis croceipes [1]; [9]): did not respond to either concentration | conditioned response to the individual volatile (Microplitis croceipes [1]; single odor experiment): weak

c1ccc2[nH]ccc2c1 [indole]
response of conditioned wasps (food searching time and turns) (Microplitis croceipes [1]; [6]): responded to the conditioned concentration | response of conditioned wasps (food searching time and turns) (Microplitis croceipes [1]; conditioned to 1 μg/ml, tested at 100 μg/ml): responded | response of conditioned wasps (food searching time and turns) (Microplitis croceipes [1]; conditioned to 100 μg/ml, tested at 1 μg/ml): did not respond | response of conditioned wasps (food searching time and turns) (Microplitis croceipes [1]; [10]): responded to the conditioned concentration | response of conditioned wasps (food searching time and turns) (Microplitis croceipes [1]; positively conditioned to 1 μg/ml and negatively conditioned to 100 μg/ml, tested at 1 μg/ml): responded to the conditioned concentration | response of conditioned wasps (food searching time and turns) (Microplitis croceipes [1]; positively conditioned to 1 μg/ml and negatively conditioned to 100 μg/ml, tested at 100 μg/ml): did not respond to the negatively conditioned concentration | conditioned response to the individual volatile (Microplitis croceipes [1]; single odor experiment): respond reliably | duration of the conditioned response compared with skatole (Microplitis croceipes [1]; single odor experiment): more prolonged response

C=CC(C)=CCC=C(C)C [ocimene, reference compound]
response of conditioned wasps to a non-conditioned odor (Microplitis croceipes [1]; single odor experiment, non-conditioned floral odor): do not respond

Cc1c[nH]c2ccccc12 [skatole, 3-methyl-indole]
response of conditioned wasps (food searching time and turns) (Microplitis croceipes [1]; [3]): no responses | response of conditioned wasps (food searching time and turns) (Microplitis croceipes [1]; [4]): no responses | response of conditioned wasps (food searching time and turns) (Microplitis croceipes [1]; [5]): responded to both concentrations; also recorded: able to detect it | response of conditioned wasps (food searching time and turns) (Microplitis croceipes [1]; [6]): responded to both concentrations | response of conditioned wasps (food searching time and turns) (Microplitis croceipes [1]; [7]): only responded to the conditioning concentration | response of conditioned wasps (food searching time and turns) (Microplitis croceipes [1]; [8]): responded to both skatole concentrations | response of conditioned wasps (food searching time and turns) (Microplitis croceipes [1]; [9]): responded to both skatole concentrations | response of conditioned wasps (food searching time and turns) (Microplitis croceipes [1]; conditioned to 10 μg/ml, tested at 100 μg/ml): only responded to the conditioning concentration | response of conditioned wasps (food searching time and turns) (Microplitis croceipes [1]; conditioned to 100 μg/ml, tested at 10 μg/ml): responded to both skatole concentrations | response of conditioned wasps (food searching time and turns) (Microplitis croceipes [1]; [10]): responded to both skatole concentrations | response of conditioned wasps (food searching time and turns) (Microplitis croceipes [1]; conditioned to 100 μg/ml, tested at 1 mg/ml): only responded to the conditioning concentration | response of conditioned wasps (food searching time and turns) (Microplitis croceipes [1]; positively conditioned to 100 μg/ml and 1000 μg/ml, tested at 10 μg/ml): responded | response of conditioned wasps (food searching time and turns) (Microplitis croceipes [1]; positively conditioned to 100 μg/ml and 1000 μg/ml, tested at 100 μg/ml): responded to both of the conditioning concentrations | conditioned response to the individual volatile (Microplitis croceipes [1]; single odor experiment): respond reliably | response of conditioned wasps (food searching time and turns) (Microplitis croceipes [2]): responded to both of the conditioning concentrations
